From patent publication US11795165B2, “Tetrahydro-benzoazepine glycosidase inhibitors” (Asceneuron SA, priority 2018, dated 2023)

Molecular target: His-Tagged hOGA (human O-GlcNAcase) (Homo sapiens (Human), UniProt O60502)
Assay: Human O-GlcNAcase enzyme inhibition assay (OGA enzyme inhibition assay)
Format: biochemical
Conditions: His-Tagged hOGA 20 nM, FL-GlcNAc 10 μM, 60 min at room temperature, pH 6.5; activity classes
Protocol: Example B01: Human O-GlcNAcase Enzyme Inhibition Assay
5 μl of the appropriate concentration of a solution of inhibitor in McIlvaine's Buffer (pH 6.5) in 2% DMSO (for a dose response curve calculation) is added into each well of a 384-well plate (Greiner, 781900). Then, 20 nM of His-Tagged hOGA and 10 μM of FL-GlcNAc (Fluorescein mono-beta-D-(2-deoxy-2-N-acetyl) glucopyranoside; Marker Gene Technologies Inc, M1485) were added to the 384-well plate for a final volume of 20 μl. After incubation for 60 min at room temperature, the reaction was terminated by the addition of 10 μL of stop buffer (200 mM glycine, pH 10.75). The level of fluorescence (Δexc 485 nm; (Δemm 520 nm) was read on a PHERAstar machine. The amount of fluorescence measured was plotted against the concentration of inhibitor to produce a sigmoidal dose response curve to calculate an IC50. All individual data was corrected by subtraction of the background (Thiamet 3 uM=100% inhibition) whilst 0.5% DMSO was considered as the control value (no inhibition).

Sequence of His-Tagged hOGA (human O-GlcNAcase) (O60502 whole entry): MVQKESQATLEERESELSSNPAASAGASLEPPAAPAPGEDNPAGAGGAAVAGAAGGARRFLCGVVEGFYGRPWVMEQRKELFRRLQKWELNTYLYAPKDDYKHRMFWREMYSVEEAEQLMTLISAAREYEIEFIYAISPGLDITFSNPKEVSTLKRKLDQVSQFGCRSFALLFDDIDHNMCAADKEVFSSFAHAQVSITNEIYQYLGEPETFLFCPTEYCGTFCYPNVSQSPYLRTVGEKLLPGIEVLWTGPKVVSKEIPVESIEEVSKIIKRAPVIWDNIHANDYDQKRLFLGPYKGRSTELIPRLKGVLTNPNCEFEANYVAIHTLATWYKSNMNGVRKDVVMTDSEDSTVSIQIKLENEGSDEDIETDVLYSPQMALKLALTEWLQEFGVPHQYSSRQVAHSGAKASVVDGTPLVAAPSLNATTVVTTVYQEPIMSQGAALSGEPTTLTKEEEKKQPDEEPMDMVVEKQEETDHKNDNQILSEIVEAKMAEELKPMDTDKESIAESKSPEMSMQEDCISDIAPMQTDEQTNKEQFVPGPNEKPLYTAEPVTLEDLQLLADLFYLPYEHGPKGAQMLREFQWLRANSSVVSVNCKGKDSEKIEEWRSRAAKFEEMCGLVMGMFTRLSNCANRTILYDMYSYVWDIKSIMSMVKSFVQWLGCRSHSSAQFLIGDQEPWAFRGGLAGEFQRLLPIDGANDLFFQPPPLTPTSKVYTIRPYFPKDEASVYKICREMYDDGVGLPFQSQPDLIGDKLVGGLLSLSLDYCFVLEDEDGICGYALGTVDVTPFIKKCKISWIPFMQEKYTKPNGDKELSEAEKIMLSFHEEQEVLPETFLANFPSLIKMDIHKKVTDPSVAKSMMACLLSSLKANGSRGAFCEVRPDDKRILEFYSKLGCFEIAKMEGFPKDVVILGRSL

Row | IC50 [nM] | SMILES
1 | 1000 to 10000 | CC(c1ccc2scnc2c1)N1CCc2ccc(-c3ccccn3)cc2CC1 (racemic) [Example 32, 5-(1-(7-(pyridin-2-yl)-1,2,4,5-tetrahydro-3H-benzo[d]azepin-3-yl)ethyl)benzo[d]thiazole]
2 | 1000 to 10000 | COc1ccc2c(c1)CCN(Cc1ccc3scnc3c1)C(C)C2 (racemic) [Example 29, 5-((7-methoxy-2-methyl-1,2,4,5-tetrahydro-3H-benzo[d]azepin-3-yl)methyl)benzo[d]thiazole]
3 | < 50 | CC(c1ccc2scnc2c1)N1CCc2cnc(N)nc2CC1 (racemic) [Example 108]
4 | < 50 | CC(c1ccc2scnc2c1)N1CCc2ccc(Oc3cccc(F)n3)cc2CC1 (racemic) [Example 23, 5-(1-(7-((6-fluoropyridin-2-yl)oxy)-1,2,4,5-tetrahydro-3H-benzo[d]azepin-3-yl)ethyl)benzo[d]thiazole]
5 | < 50 | CC(c1ccc2scnc2c1)N1CCc2ccc(S(C)(=N)=O)cc2CC1 (centres unmarked) [Example 113]
